The nature of data set [1]: Pharmacokinetic evaluation in female Balb-C mice after intravenous administration. Particulars: for half-life / t½: terminal half life in plasma (estimated); for half-life: read-out: t½ (converted); for Vd: Vd at steady state. It counts as in vivo. On the procedure:
Pharmacokinetic evaluation was performed in female Balb-C mice. For intravenous administration (IV) compounds were typically dosed at 0.5 mg/Kg in a dose volume of 5 mL/Kg via the tail vein. Compounds were typically dosed in a vehicle of 5% DMSO/95% (Kelptose 20% w/v in phosphate buffered saline (PBS) pH 7.4). Other dosing vehicles known to those skilled in the art can also be used.
Blood samples were taken by cardiac puncture under terminal anaesthesia (isoflurane) at 8 time points between 1 minute and 10 hours following IV administration, typically 1 min, 5 min, 15 min, 30 min, 1 h, 3 h, 6 h and 10 h post dosing. In some instances 2 h, 4 h and 8 h were used for the final 3 time points due to greater convenience. N=3 animals were used per time point. Plasma was immediately obtained by centrifugation, and the resulting samples frozen until analysis. Samples, along with a calibration curve prepared by spiking the compounds into control plasma, were subsequently prepared for quantitative analysis by precipitation of the plasma proteins with acetonitrile. Analysis was by ultra-high performance liquid chromatography (Agilent 1290 system) coupled to time-of-flight mass spectrometry, using electrospray ionisation (Agilent 6550 system). Pharmacokinetic parameters were determined by non-compartmental analysis of mean concentration data using Phoenix WinNonlin v6.4
The volume of distribution (Vd) is the theoretical volume into which a drug appears to be distributed assuming it is present at the same concentration everywhere as it is in plasma.
The Vd at steady state (Vdss) is calculated by multiplying the clearance (Cl) by the mean residence time (MRT). Clearance is measured by dividing the dose by the Area under the concentration time curve. Cl=Dose/AUC0-∞ Vdss=Cl×MRT
The mean residence time is calculated by dividing the area under the second moment curve (AUMC) by the area under the concentration time curve (AUC). The second moment curve can be generated by plotting […] MRT=AUMC/AUC (ii) t1/2 in Mice (Estimated)
The compound half life (t1/2) is the time for the concentration of the drug to halve in the plasma. The terminal half life was typically estimated from the gradient of a log concentration/time plot using the last 3 points. Both the Cl and the Vd contribute to the observed half life. A larger Vd and smaller Cl gives a longer t1/2.

Data set [2] is described as follows: Human hepatocyte (liver cell) stability. To be noted: intrinsic clearance, cryopreserved pooled human hepatocytes, 3 μM compound, 0-60 min; for Human Heps (μL/min/10^6 cells): Table 5, comparative examples; for Human hepatocyte stability (μL/min/10^6 cells): Table 4. In kind it is in vitro ADME. The protocol:
Commercially available cryopreserved pooled human hepatocytes were purchased and stored in liquid nitrogen prior to use. Williams E media supplemented with 2 mM L-glutamine and 25 mM HEPES and the appropriate test compound (final substrate concentration 3 μM; final DMSO concentration 0.25%) were pre-incubated at 37° C. prior to the addition of a suspension of cryopreserved human hepatocytes (final cell density 0.5×10^6 viable cells/mL in Williams E media supplemented with 2 mM L-glutamine and 25 mM HEPES) to initiate the reaction. The final incubation volume is 500 μL. Two control compounds were included in each test alongside the vehicle control, typically verapamil and umbelliferone.
The reactions were stopped after 0 min, 5 min, 20 min, 40 min and 60 min by transferring 50 μL of the incubate to 100 μL methanol containing an internal standard. The termination plates were subsequently centrifuged at 2500 rpm at 4° C. to precipitate the protein. Following protein precipitation the sample supernatants are combined in cassettes of up to 4 compounds and analysed by LC-MS/MS conditions.
The In peak area ratio (compound peak area/internal standard peak area) was plotted against time and the gradient of the line determined. Elimination rate constant (k)=−(gradient) Half life(t1/2)(min)=0.693/k V(μL/10^6 cells)=Incubation volume (μL)/number of cells in incubation (×10^6) Intrinsic Clearance(Clint)(μL/min/million cells)=V×0.693/t1/2
If the two control compounds are not within historical specified limits then the results are rejected and the experiment repeated.

Data set [3] concerns the target T1, SIK2 (Homo sapiens, UniProt Q9H0K1).
T1 construct: purchased Reaction Biology Corporation
The data set can be described thus: SIK2 radiolabelled 33P-ATP Kinase HotSpot assay (Reaction Biology Corporation). To be noted: IC50 at apparent Km for ATP (30 μM), 20 μM peptide substrate; read-out: Inhibition of SIK2. It counts as biochemical. On the procedure: SIK2 was measured using radiolabelled ^33P-ATP using the Kinase HotSpot℠ technology of Reaction Biology Corporation. The peptide AMARAASAALAARRR [SEQ ID No 2] at a concentration of 20 μM was used as the substrate. IC50 values were determined at the apparent Km for ATP (30 μM)

Data set [4] has as its target T2, IKKε (Homo sapiens, UniProt Q14164).
T2 sequence (Q14164 1-716): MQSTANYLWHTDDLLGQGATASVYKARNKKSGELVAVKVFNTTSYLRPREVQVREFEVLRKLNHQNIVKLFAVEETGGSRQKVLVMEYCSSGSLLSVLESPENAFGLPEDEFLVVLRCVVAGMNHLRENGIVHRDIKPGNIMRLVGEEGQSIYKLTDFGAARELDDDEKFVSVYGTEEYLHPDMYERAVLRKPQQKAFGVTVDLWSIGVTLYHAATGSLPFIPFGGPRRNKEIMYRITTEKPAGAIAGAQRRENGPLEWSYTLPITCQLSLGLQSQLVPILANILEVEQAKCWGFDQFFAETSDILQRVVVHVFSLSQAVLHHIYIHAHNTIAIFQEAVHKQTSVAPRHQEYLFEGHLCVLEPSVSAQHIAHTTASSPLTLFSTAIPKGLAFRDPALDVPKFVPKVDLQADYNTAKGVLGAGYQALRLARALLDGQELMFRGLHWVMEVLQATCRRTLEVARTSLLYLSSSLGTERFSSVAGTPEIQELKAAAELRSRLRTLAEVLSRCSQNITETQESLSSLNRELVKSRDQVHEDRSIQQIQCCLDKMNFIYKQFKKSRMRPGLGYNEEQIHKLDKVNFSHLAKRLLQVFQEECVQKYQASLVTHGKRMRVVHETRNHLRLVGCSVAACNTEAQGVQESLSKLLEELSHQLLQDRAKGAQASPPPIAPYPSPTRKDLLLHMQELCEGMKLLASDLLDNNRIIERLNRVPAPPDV
The experiment in a line: IKKε enzyme potency, time-resolved fluorescence Lanthascreen kinase assay. In kind it is biochemical. To be noted: IC50 at apparent Km for ATP (20 μM), 1 h reaction; read-out: Inhibition of IKKε. The protocol: (§1) Compounds of the invention (synthesised as described above), and Comparative Examples 1 to 5 (which may be synthesised as described in WO 2014/128486), were tested for potency against the IKKε and TBK1 enzyme as follows:
(§2) Inhibition studies were performed using a time-resolved fluorescence-based Lanthascreen™ assay. Phosphorylation of a fluorescein-labelled substrate peptide is measured using terbium-labeled phosphospecific antibodies. Terbium is excited at 340 nm and the FRET energy transfer to fluorescein is measured at 495 and 520 nm. The emission ratio between 520 and 495 is a measure of the level of phosphorylation of the substrate by the kinase.
(§3) Kinase inhibition assays (5 μL) were performed at 20° C. in 384-well plate format. Compound IC50 values were determined at the apparent Km for ATP (20 μM) based on a […] assay (Invitrogen) using 8 or 10 point curves in duplicate. The final reaction conditions contained 380 nM fluorescein-IkBα substrate (DRHDSGLDSMKDE) [SEQ ID No 1], 20 μM ATP, 0.9-3 nM IKKε or or 6-8 nM TBK1 kinase respectively, and 1% DMSO in kinase assay buffer consisting of 50 mM HEPES (pH 7.5), 10 mM MgCl2, 1 mM EGTA, 0.05% Brij-35.
(§4) Compound dilutions were prepared from 10 mM DMSO stocks by dilution into DMSO. Compound dilution series were further diluted in kinase assay buffer to give a 5% DMSO stock, the final concentration in the assay being 1% DMSO.
(§5) The kinase phosphorylation assay was initiated by the addition of the kinase and the reaction was allowed to proceed for 1 h or 2.5 h for IKKε and TBK1 kinase respectively. Both conditions were within the linearity of the phosphorylation. The reaction was stopped by the addition of 10 mM EDTA, and phosphorylation was detected after a 1 hour incubation with 1.5 nM terbium-labelled antibody against phosphorylation at Serine 32 on the IkBα peptide, both in TR-FRET dilution buffer (Invitrogen).

For data set [5], the target named is T3, TBK1 (Homo sapiens, UniProt Q9UHD2).
T3 sequence (Q9UHD2 1-729): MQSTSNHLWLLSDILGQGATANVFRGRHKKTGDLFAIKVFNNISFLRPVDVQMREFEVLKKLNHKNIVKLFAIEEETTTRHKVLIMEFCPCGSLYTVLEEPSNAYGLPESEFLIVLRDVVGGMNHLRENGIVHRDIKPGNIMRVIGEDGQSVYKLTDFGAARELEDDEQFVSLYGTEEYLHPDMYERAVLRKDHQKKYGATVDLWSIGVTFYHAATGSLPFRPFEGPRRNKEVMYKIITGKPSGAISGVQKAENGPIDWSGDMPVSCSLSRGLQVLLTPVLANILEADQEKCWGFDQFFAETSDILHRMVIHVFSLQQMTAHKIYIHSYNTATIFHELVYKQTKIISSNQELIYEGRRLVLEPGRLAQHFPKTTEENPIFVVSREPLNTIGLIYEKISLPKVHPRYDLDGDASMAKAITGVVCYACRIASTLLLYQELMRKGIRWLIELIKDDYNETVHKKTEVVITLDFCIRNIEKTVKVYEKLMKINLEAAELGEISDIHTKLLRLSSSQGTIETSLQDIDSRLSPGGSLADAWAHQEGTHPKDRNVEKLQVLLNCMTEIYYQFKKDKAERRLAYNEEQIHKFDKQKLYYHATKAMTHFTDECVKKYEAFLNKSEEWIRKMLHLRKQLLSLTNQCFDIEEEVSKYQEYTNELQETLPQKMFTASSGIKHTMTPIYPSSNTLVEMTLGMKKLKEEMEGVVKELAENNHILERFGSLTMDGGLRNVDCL
The experiment in a line: TBK1 enzyme potency, time-resolved fluorescence Lanthascreen kinase assay. In kind it is biochemical. Particulars: IC50 at apparent Km for ATP (20 μM), 2.5 h reaction; read-out: Inhibition of TBK1. On the procedure: as §1, §2, §3, §4, §5

Where [6] appears, read: mouse, Table 3, comparative examples, IV typically 0.5 mg/Kg.
Setting [7] is: mouse, plasma, Table 3, comparative examples, IV typically 0.5 mg/Kg, read-out: Vd.
Setting [8] is: Table 3, comparative examples, IV typically 0.5 mg/Kg.
[9] abbreviates: Table 2, IV typically 0.5 mg/Kg.

By Vd is commonly meant the apparent volume that relates the amount in the body to the concentration in plasma or blood. Broadly, the t½ is the time in which the quantity being followed falls by half.

The structures appear in SMILES notation. Where two headings read alike, the source gives them in different places. A value given as a limit tells only on which side of the number the result lay.

T1 sequence (Q9H0K1 whole entry): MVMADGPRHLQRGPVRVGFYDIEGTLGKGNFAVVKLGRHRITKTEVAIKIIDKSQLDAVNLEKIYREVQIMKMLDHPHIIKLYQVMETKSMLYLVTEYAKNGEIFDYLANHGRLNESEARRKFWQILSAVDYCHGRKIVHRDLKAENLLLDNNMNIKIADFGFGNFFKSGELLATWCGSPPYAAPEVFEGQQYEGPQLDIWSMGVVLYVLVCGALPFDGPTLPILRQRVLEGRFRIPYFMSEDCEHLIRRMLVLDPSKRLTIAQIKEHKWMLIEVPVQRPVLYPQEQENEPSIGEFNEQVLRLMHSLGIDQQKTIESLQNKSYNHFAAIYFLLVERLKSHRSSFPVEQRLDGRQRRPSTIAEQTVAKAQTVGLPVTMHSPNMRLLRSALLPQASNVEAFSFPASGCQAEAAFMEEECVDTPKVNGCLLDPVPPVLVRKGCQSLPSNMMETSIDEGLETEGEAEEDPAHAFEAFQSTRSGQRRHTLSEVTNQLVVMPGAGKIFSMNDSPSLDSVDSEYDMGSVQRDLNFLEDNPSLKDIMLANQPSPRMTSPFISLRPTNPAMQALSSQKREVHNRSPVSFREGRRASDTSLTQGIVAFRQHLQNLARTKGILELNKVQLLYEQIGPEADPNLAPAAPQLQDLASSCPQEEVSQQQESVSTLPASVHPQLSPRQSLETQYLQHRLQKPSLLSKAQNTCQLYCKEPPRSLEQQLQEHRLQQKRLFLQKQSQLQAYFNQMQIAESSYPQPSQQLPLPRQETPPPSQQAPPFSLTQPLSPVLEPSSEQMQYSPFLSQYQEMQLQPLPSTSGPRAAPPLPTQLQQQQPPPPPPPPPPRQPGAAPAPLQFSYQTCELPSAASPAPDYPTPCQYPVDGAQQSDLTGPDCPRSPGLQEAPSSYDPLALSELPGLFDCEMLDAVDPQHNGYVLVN

Consider `N#Cc1cc(-c2ccnc(Nc3ccc(CN4CCOCC4)nc3)n2)cnc1N1CC[C@H](F)C1` [Comp. Ex. 1], for which the half-life in data set [1] (setting [6]) is 30 min. Further, the Vd in data set [1] (setting [7]) is 0.3 L/kg. Besides, in data set [2], the “Human Heps (μL/min/10^6 cells)” value was 13 μL/min/10^6 cells.
As to `N#Cc1cc(-c2ccnc(Nc3ccc(CN4CCNC(=O)C4)nc3)n2)cnc1N1CC[C@H](F)C1` [Comp. Ex. 2], in data set [1] (setting [8]), the “Vd” value came to 0.74 L/kg and the “t½” value was 40.8 min. For the same molecule, in data set [2], the “Human Heps (μL/min/10^6 cells)” value was at most 6 μL/min/10^6 cells.
For the molecule `CN1CCN(c2ccc(Nc3nccc(-c4cnc(N5CC[C@H](F)C5)c(C#N)c4)n3)cn2)CC1` [Comp. Ex. 3], the “Human Heps (μL/min/10^6 cells)” value in data set [2] was found to be 48 μL/min/10^6 cells.
With `N#Cc1cc(-c2ccnc(Nc3ccc(NC(=O)CN4CCOCC4)nc3)n2)cnc1N1CC[C@H](F)C1` [Comp. Ex. 4], the distribution volume (Vd) in data set [1] (setting [8]) amounted to 0.54 L/kg. In data set [1] (setting [6]), the half-life is 30 min. Moreover, the “Human Heps (μL/min/10^6 cells)” value in data set [2] was found to be 6 μL/min/10^6 cells.
Turning to `N#Cc1cc(-c2ccnc(Nc3ccnc(NC(=O)CN4CCOCC4)c3)n2)cnc1N1CC[C@H](F)C1` [Comp. Ex. 5], the half-life in data set [1] (setting [6]) is 42 min. The Vd in data set [1] (setting [7]) turned out to be 0.7 L/kg. Also, in data set [2], the “Human Heps (μL/min/10^6 cells)” value came out at 6 μL/min/10^6 cells.
For `CCN1CCN(Cc2ccc(Nc3nccc(-c4cnc(N5CC[C@H](F)C5)c(C#N)c4)n3)cn2)CC1` [Ex. No. 1, 5-{2-[6-(4-Ethyl-piperazin-1-ylmethyl)-pyridin-3-ylamino]-pyrimidin-4-yl}-2-((S)-3-fluoro-pyrrolidin-1-yl)-nicotinonitrile], the IC50 in data set [3] is 0.007 µM; in data set [4] it was 0.016 µM; in data set [5], 0.009 µM. Further, the “Vd” value in data set [1] (setting [9]) was found to be 3.3 L/kg. For the same molecule, in data set [1] (setting [9]), the “t½” value is 102 min. The “Human hepatocyte stability (μL/min/10^6 cells)” value (shortened to “Human hepatocyte stability”) in data set [2] is listed as 11 μL/min/10^6 cells.
For `CCN1CCN(Cc2ccc(Nc3nccc(-c4cnc(N5CC[C@@H](F)C5)c(C#N)c4)n3)cn2)CC1` [Ex. No. 2, 5-{2-[6-(4-Ethyl-piperazin-1-ylmethyl)-pyridin-3-ylamino]-pyrimidin-4-yl}-2-((R)-3-fluoro-pyrrolidin-1-yl)-nicotinonitrile], in data set [1] (setting [9]), the “Vd” value came out at 5.6 L/kg and the “t½” value is 132 min. The IC50 in data set [4] came to 0.021 µM. Also, in data set [5], the IC50 was determined as 0.02 µM. In addition, the “Human hepatocyte stability” value in data set [2] is 8 μL/min/10^6 cells.
On to `CN1CCN(Cc2ccc(Nc3nccc(-c4cnc(N5CC[C@H](F)C5)c(C#N)c4)n3)cn2)CC1` [Ex. No. 3, 2-((S)-3-Fluoro-pyrrolidin-1-yl)-5-{2-[6-(4-methyl-piperazin-1-ylmethyl)-pyridin-3-ylamino]-pyrimidin-4-yl}-nicotinonitrile], for which, in data set [1] (setting [9]), the “Vd” value worked out at 4.6 L/kg and the “t½” value is 144 min. Moreover, in data set [4], the IC50 stood at 0.024 µM. Also, the IC50 in data set [5] stood at 0.017 µM. Further, in data set [2], the “Human hepatocyte stability” value is recorded as 7 μL/min/10^6 cells.
